Where two headings read alike, the source gives them in different places. Marks after values point to notes of the source that are not given here.
Tests used:
[1] = cited from earlier work
[2] = Round table sensory evaluation by test panelists: sucrose equivalent value (SEV) against sucrose reference samples; format: in vivo; details: for Sweetness (mean SEV, Duncan grouping) / Sweetness (mean SEV, two-way ANOVA, level of significance Duncan): 10 SEV solutions in neutral pH water; for Sweetness (mean SEV, Duncan grouping): level of significance for the grouping (Duncan): 5%; for Sweetness (mean SEV, two-way ANOVA, level of significance Duncan): superscripts = Duncan level of significance; for Mean 1 (mean sucrose equivalent value, SEV) / Median 1 (median sucrose equivalent value, SEV): equal sweet 10 SEV concentrations in neutral pH water, references 4%-14% sucrose, room temperature
Experimental: Round table evaluations were performed with test panelists. Equal sweet 10 SEV concentrations in neutral pH water were made for allulose, fructose and sucralose, as well as a composition comprising allulose, fructose and sucralose. The components of the test compositions are described in the below tables. The mixed compositions were calculated using the Beidler mixture equation for the sweeteners. The Beidler mixture equation for sweeteners is as follows: […]
The concentration of each component in the mixture in ppm is divided by SEV (c/R) and is plotted against concentration, c. The slope of the linear regression is the maximum SEV (Rmax). The y-intercept of the linear regression multiplied by Rmax is the half-maximal sweetness concentration, 1/K. Rmax and 1/K are the two parameters used in the Beidler equation.
The equal-molar mixture was tested against reference samples for the panelists to determine SEV values. […] The test samples were served in 2 ounce (approximately 60 ml) soufflé cups coded with 3-digit codes at room temperature. A two minute wait period between samples was enforced. Water and unsalted crackers was available for the panelists to clear their palates before and during testing. EyeQuestion, software distributed by Logic8 BV of Elst, The Netherlands, was used for ballot development and recording of results. Results were collected in EyeQuestion for calculating approximate SEV level of each test sample. The test products analyzed in this experiment are described below in Table 1.

Row | Molecule | Sweetness relative to sucrose ([1]; times as sweet as sucrose) | Sweetness (mean SEV, Duncan grouping) [2] | Sweetness (mean SEV, two-way ANOVA, level of significance Duncan) [2] | Mean 1 (mean sucrose equivalent value, SEV) [2] | Median 1 (median sucrose equivalent value, SEV) [2] | Sweetness relative to sucrose ([1]; % of the sweetness of sucrose)
1 | sucralose | approximately 600 times | 9.29^c | 9.29 | 9.286 | 10 | –
2 | O=C(CO)[C@@H](O)[C@H](O)[C@H](O)CO [Fructose, fructose] | – | 10.14^b-c | 10.14 | 10.14 | 10 | –
3 | O=C(CO)C(O)C(O)C(O)CO (centres unmarked) [Allulose, allulose] | – | 10.14^b-c | 10.14 | 10.14 | 10 | around 70%
